The source of these data is patent US8119640B2, “Hedgehog pathway antagonists methods of use” (The Board of Trustees of the Leland Stanford Junior …, priority 2008, dated 2012).

Entries after “also recorded” stand apart in the source; their conditions may differ. Like-named read-outs stand apart in the source and are kept apart here.

What all share (type): cell-based
One data set deals with NIH-3T3 cells. Briefly: Microtubule cytoskeleton staining of HPI-treated NIH-3T3 cells. Conditions: tubulin antibody staining. How it is done: Immunostaining of FLAG-Gli lines and NIH-3T3 cells. The FLAG-Gli1-expressing or FLAG-Gli2-expressing clonal cell lines were seeded into 24-well plates (80,000 cells/well) containing poly-D-lysine-coated 12-mm glass coverslips. […] The cells were subsequently fixed in 4% paraformaldehyde for 10 min at room temperature followed by treatment with methanol at −20° C. for 2 to 5 min. The cells were washed with PBS, permeabilized with 0.2% Triton X-100 for 2 to 5 min, and then blocked with PBS containing 2% BSA for 3 h at room temperature. The coverslips were then treated with mouse anti-FLAG M2 antibody (Sigma; 1:1,000 dilution in blocking buffer) and rabbit anti-Arl13b (10) (1:1,000 dilution in blocking buffer) for 3 h at room temperature and washed 3×5 min with PBS. The coverslips were incubated next with Alexa Fluor 594-conjugated goat anti-mouse IgG and Alexa Fluor 488-conjugated donkey anti-rabbit IgG antibodies (Invitrogen; 1:1,000 dilutions in blocking buffer) for 2 h at room temperature. After washes with PBS and a 5-min incubation with 4,6-diamidino-2-phenylindole (DAPI), the samples were mounted using Prolong Gold (Invitrogen) and imaged with an upright Leica DM4500B compound microscope. In order to quantify ciliary Gli2 localization, a circular region with diameter equal to the average width of cilia as determined by the anti-Arl13b antibody staining was manually placed at the distal end of each cilium. Regions were transferred from the anti-Arl13b antibody image to the anti-FLAG antibody image, and FLAG staining intensities within those areas were assessed. Between 40 and 80 cilia were analyzed for each condition. To normalize ciliary FLAG-Gli2 levels with respect to compound-dependent changes in total FLAG-Gli2 levels, the absolute average intensities for each condition were divided by the fold change in FLAG-Gli2 levels, as determined by the quantitative immunoblotting described above. Quantification of ciliary FLAG-Gli1 levels was performed in an analogous manner. Since HPI-4 perturbs primary cilia formation, only Arl13b-positive structures that could be clearly identified as cilia were used for Gli protein quanitification in HPI-4-treated cells. To assess cytoplasmic microtubule structures in cells treated with the HPIs, NIH-3T3 cells were cultured on poly-D-lysine-coated 12-mm glass coverslip, treated with the HPIs, and fixed with 4% paraformalehyde as described above. In place of the methanol treatment, the cells were permeabilitized with PBS containing 0.1% Triton X-100 for 1 min. Washing, blocking, and antibody incubation steps were then conducted as before, using mouse anti-<-tubulin (DM1-A, Sigma, 1:2,000 in blocking buffer). Secondary antibody treatments, DAPI staining, mounting, and imaging were then conducted as described above.

A further data set relates to Hh pathway. The experiment in a line: Shh-EGFP assay for Hh pathway activation. The settings on record: Shh-N-conditioned medium; HPIs at ten-fold their Shh-LIGHT2 IC50 or 30 μM, whichever lower. How it is done: Shh-EGFP assay for Hh pathway activation. A Gli-dependent enhanced green fluorescent protein reporter (Shh-EGFP) was generated by excising firefly luciferase cDNA from the 8XGliBs vector using NcoI/Hpal, and ligating in EGFP cDNA excised from the pEGFP-C1 vector (Clontech) by NcoI/Af/II digestion. […] The cells were grown to confluency and treated with DMEM containing 0.5% CS, 100 U/mL penicillin, 0.1 mg/mL streptomycin, and 5% Shh-N-conditioned medium for 30 h. Following Shh-N treatment, the adherent cultures were dissociated into single cells with 0.05% Trypsin-EDTA (300 μL/well; Invitrogen) for 5 min. The cells were then suspended in 1 mL of PBS containing 1% CS and sorted on a BD FACSAria (excitation: 488 nm; emission: 530/30 nm) to enrich for cells expressing EGFP in a Shh-N-responsive manner. […] To identify Shh-EGFP clones with maximum Shh-N-responsiveness, individual lines were seeded into 24-well plates (45,000 cell/well) and cultured for 48 h. The cells were then treated with DMEM containing 0.5% CS, 100 U/mL pencillin, 0.1 mg/mL streptomycin or the culture medium plus 5% Shh-N-conditioned medium. After 30 h, the adherent cultures were treated with 0.05% trypsin-EDTA (150 μL/well; Invitrogen) for 5 min to dissociate them into single cells. The cells were then resuspended in 500 μL of PBS containing 1% CS and analyzed on a BD FACSCalibur (excitation: 488 nm; emission: 530/30 nm). 10,000 cells were used to assess EGFP expression levels as a measure of Hh pathway activation, and the data was analyzed using FlowJo software (Tree Star). Clones with low basal EGFP levels and maximum Shh-Ninduced EGFP expression were selected for further use. To assess the inhibitory activities of the HPIs in the Shh-EGFP cells, a clonal line with maximum Shh-responsiveness was cultured in 24-well plates as described above. […] The resulting EGFP levels were then evaluated by FACS and quantified using the FlowJo software.

For the next data set, the system named is C3H10T(1/2) cells. Briefly: C3H10T(1/2) assay for Hh pathway activation (alkaline phosphatase). Conditions: Mus musculus. How it is done:
C3H10T(1/2) assay for Hh pathway activation. C3H10T(1/2) cells (ATCC) were plated into 96-well plates using DMEM containing 10% FBS, 100 U/mL penicillin, 0.1 mg/mL streptomycin, 5% Shh-N-conditioned medium, and various concentrations of the Hh pathway inhibitors. After approximately 40 h, the cells were washed with PBS and lysed in 50 μL of buffer containing 50 mM Tris-HCl, pH 9.5, 150 mM NaCl, 5 mM MgCl2, and 1% Triton X-100. Alkaline phosphatase activities in the cell lysates were quantified by adding 10 μL of the lysate to 50 μL of CDP-Star chemiluminescence reagent (Perkin Elmer) and measuring the resulting chemiluminescence on a Veritas microplate luminometer.

A further data set addresses T1, Gli2 (Mus musculus, UniProt Q0VGT2).
T1 construct: expressed in transfected cells; host or cells: NIH-3T3
The experiment in a line: Hh pathway activation mediated by overexpression of Gli2. The settings on record: for Inhibition of Hh pathway activity induced by Gli2 overexpression: NIH-3T3 cells, Gli-dependent firefly luciferase; for IC50: NIH-3T3 cells overexpressing Gli2, read-out: IC50 (uM) Gli2 Transfected. How it is done: Hh pathway activation mediated by the overexpression of Gli, Gli2, Gli2αPKA, or Gli2αGSK. […] The cells were co-transfected the following day with 220 ng/well pcDNA-derived Gli1, Gli2, or Gli2 phosphosite mutant expression vectors and 80 ng/well of a 1:15 mixture of phRLTK (Promega) and 8XGIiBS-FL. After transfection, cells were grown to confluence (approximately 48 h). The cell were then incubated for an additional 28-32 h in DMEM containing 0.5% CS, 100 U/mL penicillin, 0.1 mg/mL streptomycin, and either DMSO, 50 μM forskolin, 50 μM LY294002, or various concentrations of the HPIs. Firefly and Renilla luciferase activities were measured using a dual luciferase kit and a Veritas microplate luminometer.

The mark [1] stands for this setting: C3H 10T1/2, Shh-induced differentiation, alkaline phosphatase, read-out: IC50 (uM) Shh/C3H10T[1/2] cells.

T1 sequence (Q0VGT2 whole entry): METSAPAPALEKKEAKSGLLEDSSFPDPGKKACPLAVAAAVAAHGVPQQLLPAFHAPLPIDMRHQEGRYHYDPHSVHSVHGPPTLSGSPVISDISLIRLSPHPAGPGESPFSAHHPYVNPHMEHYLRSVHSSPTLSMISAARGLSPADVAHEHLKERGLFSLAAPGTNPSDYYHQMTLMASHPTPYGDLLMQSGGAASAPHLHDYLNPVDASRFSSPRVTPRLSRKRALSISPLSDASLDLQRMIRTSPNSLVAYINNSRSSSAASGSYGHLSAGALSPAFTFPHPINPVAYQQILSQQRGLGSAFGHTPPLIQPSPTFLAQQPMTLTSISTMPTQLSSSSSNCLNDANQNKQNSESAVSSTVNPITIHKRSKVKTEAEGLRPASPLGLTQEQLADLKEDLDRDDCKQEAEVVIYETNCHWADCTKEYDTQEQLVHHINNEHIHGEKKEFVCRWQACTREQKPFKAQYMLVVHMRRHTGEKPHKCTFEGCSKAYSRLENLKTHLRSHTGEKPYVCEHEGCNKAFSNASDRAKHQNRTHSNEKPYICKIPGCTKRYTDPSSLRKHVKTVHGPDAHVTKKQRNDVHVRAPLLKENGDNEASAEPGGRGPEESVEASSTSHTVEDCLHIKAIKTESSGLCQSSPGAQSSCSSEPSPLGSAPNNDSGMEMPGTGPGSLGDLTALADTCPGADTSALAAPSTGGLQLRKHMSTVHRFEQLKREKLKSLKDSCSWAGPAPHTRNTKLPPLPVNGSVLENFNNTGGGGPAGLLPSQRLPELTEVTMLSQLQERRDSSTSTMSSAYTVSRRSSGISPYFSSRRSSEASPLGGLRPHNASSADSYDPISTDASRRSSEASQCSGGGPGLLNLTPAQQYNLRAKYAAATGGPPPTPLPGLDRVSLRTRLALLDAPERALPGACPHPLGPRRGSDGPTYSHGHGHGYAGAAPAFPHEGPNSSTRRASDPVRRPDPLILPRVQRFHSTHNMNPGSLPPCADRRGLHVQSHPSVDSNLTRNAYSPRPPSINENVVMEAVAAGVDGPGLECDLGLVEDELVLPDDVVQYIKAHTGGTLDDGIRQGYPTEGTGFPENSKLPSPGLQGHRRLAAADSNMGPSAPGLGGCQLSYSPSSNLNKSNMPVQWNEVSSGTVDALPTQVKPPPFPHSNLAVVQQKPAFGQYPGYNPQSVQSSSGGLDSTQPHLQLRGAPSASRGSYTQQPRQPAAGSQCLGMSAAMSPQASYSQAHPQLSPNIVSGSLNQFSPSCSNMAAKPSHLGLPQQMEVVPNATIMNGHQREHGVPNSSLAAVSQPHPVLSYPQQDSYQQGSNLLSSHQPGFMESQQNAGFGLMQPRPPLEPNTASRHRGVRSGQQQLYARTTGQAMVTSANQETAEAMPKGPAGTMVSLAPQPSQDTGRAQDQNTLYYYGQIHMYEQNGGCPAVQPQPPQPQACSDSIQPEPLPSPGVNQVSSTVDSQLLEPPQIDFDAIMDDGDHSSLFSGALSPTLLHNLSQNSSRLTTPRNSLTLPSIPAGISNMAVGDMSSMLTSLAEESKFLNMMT

As to `COCCOC(=O)C1=C(C)NC2=C(C(=O)CC(c3ccccc3OC)C2)C1c1cccc(O)c1` (mixture of isomers) [Compound 8, 4-(3-Hydroxy-phenyl)-7-(2-methoxy-phenyl)-2-methyl-5-oxo-1,4,5,6,7,8-hexahydro-quinoline-3-carboxylic acid 2-methoxy-ethyl ester], the Microtubule disruption result in the data set on NIH-3T3 cells was “No”. Further, the “% Inhibition Shh-GFP cells” value with Hh pathway was 86%. Moreover, in the data set with C3H10T(1/2) cells (setting [1]), the IC50 stood at 0.4 µM. In addition, the “Inhibition of Hh pathway activity induced by Gli2 overexpression” value (shortened to “Inhibition … by Gli2 overexpression”) on Gli2 (listed as HPI-1) is “inhibit Gli-induced firefly luciferase expression in a dose-dependent manner; also recorded: inhibits”.

With `N#Cc1cc2c(nc1SCC(=O)Nc1nc3ccccc3s1)CCC2` [Compound 1], the Microtubule disruption result in the data set with NIH-3T3 cells is recorded as “No”. The “% Inhibition Shh-GFP cells” value with Hh pathway came to 74.4%. The IC50 was determined as 0.9 µM in the data set on C3H10T(1/2) cells (setting [1]) and 3 µM on Gli2.

Regarding `CCCCNC(=N)C(C)c1ccc(CC(C)C)cc1` (centres unmarked) [Compound 2], the Microtubule disruption entry with NIH-3T3 cells was “No”. In the data set with Hh pathway, the “% Inhibition Shh-GFP cells” value is 80.9%. The IC50 was 0.8 µM in the data set with C3H10T(1/2) cells (setting [1]) and over 30 µM on Gli2.

On to `Cc1cc(/C=c2\sc3nc4ccccc4n3c2=O)c(C)n1C(C)C` [Compound 3], for which the Microtubule disruption entry in the data set on NIH-3T3 cells is given as “No”. In addition, the “% Inhibition Shh-GFP cells” value in the data set with Hh pathway came out at 60.5%. Besides, the IC50 in the data set with C3H10T(1/2) cells (setting [1]) is 0.9 µM; on Gli2, 2 µM.

Regarding `O=C(Nc1cccc2ccccc12)OC[C@@H]1CCCN2CCCC[C@H]12` [Compound 4], in the data set with NIH-3T3 cells, the Microtubule disruption entry is given as “No”. Moreover, the “% Inhibition Shh-GFP cells” value with Hh pathway came to 63%. Besides, the IC50 is 0.8 µM with C3H10T(1/2) cells (setting [1]) and over 30 µM on Gli2.

`CCC(C)NS(=O)(=O)c1ccc(Cc2ccc(S(=O)(=O)NC(C)CC)cc2)cc1` (centres unmarked) [Compound 5]: the Microtubule disruption result with NIH-3T3 cells was “No”. In the data set with Hh pathway, the “% Inhibition Shh-GFP cells” value was 84.9%. Also, the IC50 came to 0.9 µM with C3H10T(1/2) cells (setting [1]) and 10 µM at Gli2.

Regarding `CCOC(=O)c1cc2c(=O)n3ccccc3nc2n(C(C)C)c1=NC(=O)c1cc(OC)cc(OC)c1` [Compound 6], the Microtubule disruption entry in the data set on NIH-3T3 cells is listed as “No”. In addition, the “% Inhibition Shh-GFP cells” value in the data set with Hh pathway is 84.5%. The IC50 in the data set with C3H10T(1/2) cells (setting [1]) is 0.45 µM; at Gli2 it was 1.5 µM.

Take `CCN1CCCC1CNC(=O)C1CCN(c2nc3c(C)cc(C)cc3s2)CC1` (centres unmarked) [Compound 7]: in the data set with NIH-3T3 cells, the Microtubule disruption entry is “No”. Besides, in the data set with Hh pathway, the “% Inhibition Shh-GFP cells” value came out at 90.5%. In addition, the IC50 in the data set on C3H10T(1/2) cells (setting [1]) was found to be 0.8 µM. Moreover, at Gli2, the “Toxicity noted in Gli2 Transfected column” value was “(Toxic at 30)” and the IC50 was over 10 µM.

On to `CCOC(=O)c1cn(-c2ccccc2)nc1-c1ccc(OC)c(OC)c1` [Compound 9], for which the Microtubule disruption entry in the data set on NIH-3T3 cells is recorded as “No”. Further, the “% Inhibition Shh-GFP cells” value with Hh pathway is 86.5%. Moreover, the IC50 in the data set with C3H10T(1/2) cells (setting [1]) is 0.8 µM; at Gli2, over 30 µM.

`O=S(=O)(Nc1cc(Cl)c(Cl)cc1Cl)c1ccc(F)cc1` [Compound 10]: in the data set with NIH-3T3 cells, the Microtubule disruption result is reported as “No”. Moreover, in the data set with Hh pathway, the “% Inhibition Shh-GFP cells” value worked out at 78.8%. Also, the IC50 in the data set with C3H10T(1/2) cells (setting [1]) and on Gli2 was 4 µM each time.

Regarding `OCCNc1nc(N2CCN(c3ccccc3)CC2)nc2ccccc12` [Compound 11], the Microtubule disruption result in the data set with NIH-3T3 cells was “No”. Also, in the data set with Hh pathway, the “% Inhibition Shh-GFP cells” value turned out to be 76.7%. The IC50 is 2 µM with C3H10T(1/2) cells (setting [1]) and over 30 µM at Gli2. Besides, the “Inhibition … by Gli2 overexpression” value at Gli2 (listed as HPI-3) was “no significant activity; also recorded: inactive”.

Regarding `CC(C)(C)N(CCNS(=O)(=O)c1ccc(-c2cc(C(F)(F)F)no2)s1)Cc1ccco1` [Compound 12], the Microtubule disruption result with NIH-3T3 cells is “No”. In the data set on Hh pathway, the “% Inhibition Shh-GFP cells” value is on record as 87.5%. The IC50 in the data set with C3H10T(1/2) cells (setting [1]) worked out at 0.25 µM; on Gli2, 15 µM.

For `CN1CCN(C2Cc3ccccc3Sc3ccccc32)CC1` (centres unmarked) [Compound 13], in the data set on NIH-3T3 cells, the Microtubule disruption entry is reported as “No”. Moreover, in the data set with Hh pathway, the “% Inhibition Shh-GFP cells” value is given as 78.3%. In addition, the figures for the IC50 in the data set on C3H10T(1/2) cells (setting [1]) and on Gli2 were 2.5 µM and over 30 µM, respectively.

Consider `CCOc1ccc2ncc(C(=O)c3ccc(C)cc3)c(N3CCCC3)c2c1` [Compound 14], for which, in the data set on NIH-3T3 cells, the Microtubule disruption entry is “No”. Moreover, in the data set with Hh pathway, the “% Inhibition Shh-GFP cells” value came out at 67.2%. Further, the IC50 with C3H10T(1/2) cells (C3H 10T1/2, read-out: IC50 (uM) Shh/C3H10T[1/2] cells) worked out at 0.4 µM; on Gli2, 10 µM.

In the case of `O=C(Nc1nnc(S(=O)(=O)N2CCCCC2)s1)c1cccc(Br)c1` [Compound 15], the Microtubule disruption result in the data set with NIH-3T3 cells was “No”. The “% Inhibition Shh-GFP cells” value in the data set with Hh pathway is 86.9%. Besides, the IC50 with C3H10T(1/2) cells (setting [1]) came out at 4 µM; at Gli2 it was 25 µM.

For the compound `CCOc1ccc(CCNc2cnnc3c(Cl)cccc23)cc1OCC` [Compound 16], the Microtubule disruption result with NIH-3T3 cells was “No”. In addition, the “% Inhibition Shh-GFP cells” value in the data set on Hh pathway was 82.7%. In addition, the IC50 in the data set with C3H10T(1/2) cells (setting [1]) was 0.2 µM; on Gli2, over 30 µM.

For the compound `COc1ccc(OC)c2c1cc1n2CC(C)(C(=O)NC2CCCCCCC2)N(CCN(C)C)C1=O` (centres unmarked) [Compound 17], the Microtubule disruption entry in the data set with NIH-3T3 cells was “No”. Also, in the data set on Hh pathway, the “% Inhibition Shh-GFP cells” value amounted to 80.2%. Besides, the values for the IC50 with C3H10T(1/2) cells (setting [1]) and at Gli2 were 2 µM and 6 µM, respectively. For the same compound, the “Inhibition … by Gli2 overexpression” value at Gli2 (listed as HPI-2) is reported as “preferentially inhibits Gli2”.
